Laboratory results reported in patent US8785460B2, “Tricyclic compounds and use thereof” (Takeda Pharmaceutical Company Limited, priority 2008, dated 2014).

Target: T1, human CRF1 receptor (Homo sapiens, UniProt P34998)
T1 construct: expressed in transfected cells; host or cells: CHO cells (membrane fraction)
T1 sequence (P34998 24-415): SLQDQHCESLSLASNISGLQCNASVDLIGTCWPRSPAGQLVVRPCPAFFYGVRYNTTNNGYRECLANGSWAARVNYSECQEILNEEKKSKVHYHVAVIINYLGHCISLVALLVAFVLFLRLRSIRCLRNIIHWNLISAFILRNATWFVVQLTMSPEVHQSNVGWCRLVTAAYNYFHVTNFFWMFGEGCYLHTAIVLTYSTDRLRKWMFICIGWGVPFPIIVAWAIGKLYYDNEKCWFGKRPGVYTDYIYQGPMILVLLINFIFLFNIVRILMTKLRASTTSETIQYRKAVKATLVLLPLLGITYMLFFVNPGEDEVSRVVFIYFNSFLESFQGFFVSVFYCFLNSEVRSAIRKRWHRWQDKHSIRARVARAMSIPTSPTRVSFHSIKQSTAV
Assay: Measurement of CRF Binding Inhibitory Rate (receptor binding experiment with 125I-CRF)
Details: human CRF1 receptor expressing CHO cellular membrane fraction, 50 pM 125I-CRF, room temperature 1.5 hr, 0.05 nM to 10 μM of compound; read-out: IC50 values (CRF binding inhibition)
Experimental: Measurement of CRF Binding Inhibitory Rate
A receptor binding experiment was carried out using a human CRF1 receptor expressing CHO cellular membrane fraction and ovine CRF, [^125I]-tyr^0(^125I-CRF). 1000 nM of a test compound was incubated with 1 μg of human CREF receptor expressing CHO cellular membrane fraction and 50 pM of ^125I-CRF in a binding assay buffer (50 mM Tris-HCl, 5 mM EDTA, 10 mM MgCl2, 0.05% CHAPS, 0.1% BSA, 0.5 mM PMSF, 0.1 μg/mL pepstatin, 20 μg/mL leupeptin, pH 7.5). In addition, for measuring nonspecific binding (NSB), 0.1 μM unlabelled human Urocortin was incubated with 5 μg of human CRE receptor expressing CHO cellular membrane fraction and 50 pM of ^125I-CRF in a binding assay buffer. After a binding reaction was carried out at room temperature for 1.5 hr, the membrane was entrapped on a glass filter (UniFilter plate GF-C/Perkin Elmer) by suction filtration using a cell harvester (Perkin Elmer), and washed with ice-cooled 50 mM Tris-HCl (pH 7.5). After drying the glass filter, a liquid scintillation cocktail (Microscinti 0, Perkin Elmer) was added, and the radioactivity of ^125I-CRF remaining on a glass filter was measured using Topcount (Perkin Elmer).
(TB−SB)/(TB−NSB)×100 (SB: radioactivity when a compound is added, TB: maximum binding radioactivity, NSB: nonspecific binding radioactivity) were calculated to obtain binding inhibitory rates under the range of the presence from 0.05 nM to 10 μM of each compound. The IC50 values were calculated by using GraphPad Prism software.

SMILES	IC50
O=[N+]([O-])c1ccc(Cl)c2nc3n(c12)CCCN3c1ccc(Cl)cc1Cl [Example 99, 9-Chloro-1-(2,4-dichlorophenyl)-6-nitro-1,2,3,4-tetrahydropyrimido[1,2-a]benzimidazole]	< 1000 nM
CCC(CC)c1ccc(Cl)c2nc3n(c12)CCCCN3c1ncc(N)cc1C [Example 65, 6-[10-Chloro-7-(1-ethylpropyl)-2,3,4,5-tetrahydro-1H-[1,3]diazepino[1,2-a]benzimidazol-1-yl]-5-methylpyridin-3-amine]	< 1000 nM
CCC(CC)c1ccc(Cl)c2nc3n(c12)CCCCN3c1ccc(C)cc1CO [Example 33, {2-[10-Chloro-7-(1-ethylpropyl)-2,3,4,5-tetrahydro-1H-[1,3]diazepino[1,2-a]benzimidazol-1-yl]-5-methylphenyl}methanol]	< 1000 nM
CCC(CC)c1ccc(Cl)c2nc3n(c12)CCN3c1ccccc1Cl [Example 13, 8-Chloro-1-(2-chlorophenyl)-5-(1-ethylpropyl)-2,3-dihydro-1H-imidazo[1,2-a]benzimidazole]	< 1000 nM
CCC(CC)c1ccc(Cl)c2nc3n(c12)CCN3c1ncc(C(F)(F)F)cc1Cl [Example 225, 8-Chloro-1-[3-chloro-5-(trifluoromethyl)pyridin-2-yl]-5-(1-ethylpropyl)-2,3-dihydro-1H-imidazo[1,2-a]benzimidazole]	< 1000 nM
COC(=O)c1ccc(Cl)c2nc3n(c12)CCCN3c1ncc(C)nc1C [Example 175, Methyl 9-chloro-1-(3,5-dimethylpyrazin-2-yl)-1,2,3,4-tetrahydropyrimido[1,2-a]benzimidazole-6-carboxylate]	< 1000 nM
C=CCC(O)c1ccc(Cl)c2nc3n(c12)CCCN3c1c(C)cc(Cl)cc1Cl (centres unmarked) [Example 383, 1-[9-Chloro-1-(2,4-dichloro-6-methylphenyl)-1,2,3,4-tetrahydropyrimido[1,2-a]benzimidazol-6-yl]but-3-en-1-ol]	< 1000 nM
CCC(OC1CC1)c1ccc(Cl)c2nc3n(c12)CCCN3c1ccc(OC)cc1Cl (centres unmarked) [Example 474, 9-Chloro-1-(2-chloro-4-methoxyphenyl)-6-[1-(cyclopropyloxy)propyl]-1,2,3,4-tetrahydropyrimido[1,2-a]benzimidazole]	< 1000 nM
CCC(CC)c1ccc(Cl)c2nc3n(c12)CCN3c1ccc(C=O)cc1Cl [Example 16, 3-Chloro-4-[8-chloro-5-(1-ethylpropyl)-2,3-dihydro-1H-imidazo[1,2-a]benzimidazol-1-yl]benzaldehyde]	< 1000 nM
CCC(OC1CC1)c1ccc(Cl)c2nc3n(c12)CCCN3c1ccc(OC)nc1C (centres unmarked) [Example 271, 9-Chloro-6-[1-(cyclopropyloxy)propyl]-1-(6-methoxy-2-methylpyridin-3-yl)-1,2,3,4-tetrahydropyrimido[1,2-a]benzimidazole]	< 1000 nM
CCC(c1ccc(Cl)c2nc3n(c12)CCCN3c1ccc(Cl)cc1Cl)N(C)S(C)(=O)=O (centres unmarked) [Example 385, N-{1-[9-Chloro-1-(2,4-dichlorophenyl)-1,2,3,4-tetrahydropyrimido[1,2-a]benzimidazol-6-yl]propyl}-N-methylmethanesulfonamide]	< 1000 nM
CCC(OC(=O)C(C)C)c1ccc(Cl)c2nc3n(c12)CCCN3c1ccc(Cl)cc1Cl (centres unmarked) [Example 480, 1-[9-Chloro-1-(2,4-dichlorophenyl)-1,2,3,4-tetrahydropyrimido[1,2-a]benzimidazol-6-yl]propyl 2-methylpropanoate]	< 1000 nM
CCC(OC(C)=O)c1ccc(Cl)c2nc3n(c12)CCCN3c1ccc(S(C)(=O)=O)cc1Cl (centres unmarked) [Example 254, 1-{9-Chloro-1-[2-chloro-4-(methylsulfonyl)phenyl]-1,2,3,4-tetrahydropyrimido[1,2-a]benzimidazol-6-yl}propyl acetate]	< 1000 nM
CCC(CC)c1ccc(Cl)c2nc3n(c12)CCCCN3c1ccc(C)cc1 [Example 32, 10-Chloro-7-(1-ethylpropyl)-1-(4-methylphenyl)-2,3,4,5-tetrahydro-1H-[1,3]diazepino[1,2-a]benzimidazole]	< 1000 nM
Cc1cc(S(C)(=O)=O)ccc1N1CCCn2c1nc1c(Cl)ccc(C(OC(F)F)C(F)(F)F)c12 (centres unmarked) [Example 477, 9-Chloro-6-[1-(difluoromethoxy)-2,2,2-trifluoroethyl]-1-[2-methyl-4-(methylsulfonyl)phenyl]-1,2,3,4-tetrahydropyrimido[1,2-a]benzimidazole]	< 1000 nM
Clc1ccc(N2CCCn3c2nc2c(Cl)ccc(N4CCCC4)c23)c(Cl)c1 [Example 196, 9-Chloro-1-(2,4-dichlorophenyl)-6-pyrrolidin-1-yl-1,2,3,4-tetrahydropyrimido[1,2-a]benzimidazole]	< 1000 nM
Cc1cc(Cl)cc(Cl)c1N1CCCn2c1nc1c(Cl)ccc(C(O)CC3CC3)c12 (centres unmarked) [Example 386, 1-[9-Chloro-1-(2,4-dichloro-6-methylphenyl)-1,2,3,4-tetrahydropyrimido[1,2-a]benzimidazol-6-yl]-2-cyclopropylethanol]	< 1000 nM
CCC(CC)c1ccc(Cl)c2nc3n(c12)CCCCN3c1ccc(OC(F)(F)F)cc1C=O [Example 41, 2-[10-Chloro-7-(1-ethylpropyl)-2,3,4,5-tetrahydro-1H-[1,3]diazepino[1,2-a]benzimidazol-1-yl]-5-(trifluoromethoxy)benzaldehyde]	< 1000 nM
CCN(CC)c1cccc2nc3n(c12)CCCOC3c1ccc(Cl)cc1Cl (single isomer, unassigned) [Example 485, 1-(2,4-Dichlorophenyl)-N,N-diethyl-4,5-dihydro-1H,3H-[1,4]oxazepino[4,3-a]benzimidazol-7-amine]	< 1000 nM
Cc1nc(C(N)=O)ccc1N1CCCn2c1nc1c(Cl)ccc(C(OC(F)F)C(F)(F)F)c12 (centres unmarked) [Example 293, 5-{9-Chloro-6-[1-(difluoromethoxy)-2,2,2-trifluoroethyl]-3,4-dihydropyrimido[1,2-a]benzimidazol-1(2H)-yl}-6-methylpyridine-2-carboxamide]	< 1000 nM
CCC(c1ccc(Cl)c2nc3n(c12)CCCN3c1ccc(Cl)cc1Cl)C(F)F (centres unmarked) [Example 403, 9-Chloro-1-(2,4-dichlorophenyl)-6-[1-(difluoromethyl)propyl]-1,2,3,4-tetrahydropyrimido[1,2-a]benzimidazole]	< 1000 nM
CCC(OCC(F)(F)F)c1ccc(Cl)c2nc3n(c12)CCCN3c1ccc(OC)cc1Cl (centres unmarked) [Example 466, 9-Chloro-1-(2-chloro-4-methoxyphenyl)-6-[1-(2,2,2-trifluoroethoxy)propyl]-1,2,3,4-tetrahydropyrimido[1,2-a]benzimidazole]	< 1000 nM
CCC(OCCO)c1ccc(Cl)c2nc3n(c12)CCCN3c1ccc(Cl)cc1Cl (centres unmarked) [Example 242, 2-{1-[9-Chloro-1-(2,4-dichlorophenyl)-1,2,3,4-tetrahydropyrimido[1,2-a]benzimidazol-6-yl]propoxy}ethanol]	< 1000 nM
CCC(OC(C)=O)c1ccc(Cl)c2nc3n(c12)CCCN3c1ccc(OC)nc1C (single isomer, unassigned; (-)) [Example 266, (−)-1-[9-Chloro-1-(6-methoxy-2-methylpyridin-3-yl)-1,2,3,4-tetrahydropyrimido[1,2-a]benzimidazol-6-yl]propyl acetate]	< 1000 nM
CCOC(c1ccc(Cl)c2nc3n(c12)CCCN3c1ccc(OC)cc1Cl)C(F)(F)F (centres unmarked) [Example 470]	< 1000 nM
CCN(CC)c1cc(F)cc2nc3n(c12)CCCOC3c1ccc(Cl)cc1Cl (centres unmarked) [Example 494, 1-(2,4-Dichlorophenyl)-N,N-diethyl-9-fluoro-4,5-dihydro-1H,3H-[1,4]oxazepino[4,3-a]benzimidazol-7-amine]	< 1000 nM
CCC(OC(C)=O)c1ccc(Cl)c2nc3n(c12)CCCN3c1ccccc1Cl (centres unmarked) [Example 253, 1-[9-Chloro-1-(2-chlorophenyl)-1,2,3,4-tetrahydropyrimido[1,2-a]benzimidazol-6-yl]propyl acetate]	< 1000 nM
CCC(CC)c1ccc(Cl)c2nc3n(-c4c(C)cc(Cl)cc4OC)c(Cl)cn3c12 [Example 10, 2,8-Dichloro-1-(4-chloro-2-methoxy-6-methylphenyl)-5-(1-ethylpropyl)-1H-imidazo[1,2-a]benzimidazole]	< 1000 nM
CCN(CC)c1cccc2nc3n(c12)CCN=C3c1ccc(Cl)cc1Cl [Example 507, 1-(2,4-Dichlorophenyl)-N,N-diethyl-3,4-dihydropyrazino[1,2-a]benzimidazol-6-amine]	< 1000 nM
